# Test results: patent publication US6284910A, “Farnesyl pyrophosphate analogs” (University of Kentucky Research Foundation, priority 1999, dated 2001)
# “Also recorded” adds a separate entry of the source.
# Assays:
# FTase [1] = target: T1, FTase (Rattus norvegicus, UniProt Q02293+Q04631); assay: Continuous fluorescence assay: transfer of FPP and analogs to N-dansyl-GCVLS by FTase; type: biochemical; conditions: excitation 340 nm, 505 nm
# Text: FIG. 8. Progress Curves for Transfer of FPP and Analog Pyrophosphates to Dansyl-GCVLS by FTase. The reaction is monitored for fluorescence intensity at 505 nm with excitation at 340 nm. (a) FPP, (b) AGPP, (c) 8-(pentafluoroaniline)geranyl pyrophosphate, (d) blank.
# Continuous Fluorescence Assay for Analog Transfer: An important requirement for these studies is the development of a rapid technique for evaluating whether FPP analogs that are efficiently and appropriately transferred to target substrates by FTase. The analogs were evaluated for their ability to be transferred by FTase to the pentapeptide N-dansyl-GCVLS in a continuous fluorescence assay. (See references 78, 79, infra). There is a time dependent increase in the fluorescence of the dansyl group due to the local increase in hydrophobicity as the adjacent cysteine residue is isoprenylated. […] (FIG. 8).
# FTase [2] = target: T1, FTase; assay: Inhibition of FTase-catalyzed transfer of [^3 H]AGPP to p21^H-ras; type: biochemical; set-up: H-Ras is only the protein substrate; conditions: non-radiolabeled compound, time and concentration dependent transfer
# Procedure: (§1) Assay for Farnesyltransferase Activity--Farnesyltransferase activity was assayed by measuring the amount of [^3 H]farnesyl or [^3 H]anilinogeranyl transferred from [^3 H]FPP or [^3 H]AGPP to recombinant p21^H-ras, as described previously (31). Unless otherwise stated, each reaction mixture contained the following components in a final volume of 25 μl: 50 mM Tris (pH 7.4), 20 mM KCl, 0.2% octyl β-glucopyranoside, 1 mM dithiothreitol, 10-20 ng recombinant FTase, 5 μM p21^Ha-ras, 3 mM MgCl2, 50 μM ZnCl2, and 0.6 μM [^3 H]FPP (33,000 dpm/pmol; American Radiochemical Co.) or 0.1-5 μM [^3 H]AGPP (37,400 dpm/pmol). Following incubation for the indicated times at 37° C., the amount of [^3 H]prenyl transferred was measured by ethanol-HCl precipitation and filtration on glass fiber filters with modification as previously described (19). A blank value was determined in parallel incubation mixtures containing no enzyme. This blank value was subtracted from each reaction before calculating pmol [^3 H]prenyl transferred.
# (§2) The observed inhibition kinetics could be a manifestation of the ability of AGPP to act as an alternative substrate for FTase. To evaluate the potential of AGPP to serve as a substrate of FTase, [^3 H]-AGPP was prepared by a similar route as described above, incorporating tritium with a specific activity of 17 Ci/mmol (synthesis to be reported elsewhere). […] The incorporated radioactivity was detected as a band of the expected molecular weight of farnesylated p21^H-ras on SDS-polyacrylamide gels (FIG. 4A, inset). […] The concentration of [^3 H]AGPP that gave half-maximal reaction velocity was approximately 0.5 μM (FIG. 4B).
# FTase [3] = target: T1, FTase; assay: FTase-catalyzed transfer of labeled FPP analogs to p21^H-ras (substrate assay); type: biochemical; set-up: H-Ras is only the protein substrate; conditions: in vitro, 37° C.
# Procedure: FIG. 4. Transfer of Anilinogeranyl from [^3 H]AGPP to p21^Ha-ras by Farnesyltransferase. (A) Each reaction contained 1 μM [^3 H]AGPP (37,400 dpm/pmol) and 10 ng of recombinant FTase in the absence (triangles) or presence (circles) of 5 μM p21^Ha-ras Duplicate samples were incubated for the indicated times at 37° C., and ethanol-HCl precipitated radioactivity was measures as described under "Experimental Procedures". […] The gel was treated with Amplify solution (Amersham), dried, and exposed to Kodak X-OMAT AR film for 2 days at -70° C. The migration of molecular weight markers placed in a adjacent lane is shown. (B) The AGPP substrate saturation curve for FTase was determined by varying the amount of [^3 H]AGPP in the standard reaction described above. Assays were carried out in duplicate for 30 min at 37° C., and the ethanol-HCl precipitable radioactivity measured. The data is representative of three independent experiments.
# FIG. 5. […] Farnesyltransferase (10 ng) was incubated in a final volume of 25 μl in the presence of 1.0 μM [^3 H]AGPP or [^3 H]FPP and 5 μM wild-type p21^Ha-ras. After incubation for 30 min at 37° C., the amount of [^3 H]prenyl transferred to p21^Ha-ras was determined as described under "Experimental Procedures". Each value is the average of duplicate incubations and is representative of five separate experiments.
# as §1, §2
# FIG. 5 depicts transfer of unnatural anilinogeranyl lipid from [^3 H]AGPP and transfer of farnesyl lipid from [^3 H]FPP to H-Ras by FTase. Farnesyltransferase (10 ng) was incubated in a final volume of 25 μl in the presence of 1.0 μM [^3 H]AGPP or [^3 H]FPP and 5 μM wild-type H-Ras. After incubation for 30 min. at 37° C., the amount of [^3 H]prenyl transferred to H-Ras was determined by ethanol-HCl precipitation and scintillation counting. Each value is the average of duplicate incubations and is representative of five separate experiments.
# Xenopus laevis oocytes = assay: Xenopus laevis oocyte maturation assay (GVBD) with oncogenic H-Ras in mevinolin-treated oocytes; type: cell-based; conditions: 50 μM mevinolin, overnight
# Text: Recently, a novel methodology involving the microinjection of known amounts of Ras into Xenopus oocytes has been described (see references 24, 45, infra), thereby permitting a quantitative structure-function analysis of H-Ras farnesyl-group for signal transduction in vivo. The approach makes use of enzymatic methods to attach structurally related farnesyl analogs onto the prenylation site of H-Ras combined with microinjection procedures to study their in vivo function. Oocytes are naturally arrested at the G2-M boundary of the first meiotic cell division. (See reference 80, infra). When microinjected with oncogenic H-Ras, oocytes reenter the cell cycle, which is monitored by germinal vesicle breakdown (GVBD) by the appearance of a white spot in the animal hemisphere. GVBD is accompanied by activation of the mitogen-activated protein kinase (MAPK) cascade. (See 81, 82, infra). […] (See references 24, 45, infra). These biochemical effects are strictly dependent on in vivo farnesylation of the injected H-Ras protein since mutation of the CaaX prenylation motif, blocking isoprenoid biosynthesis, and inhibition of FTase in oocytes all suppress these activities. (See references 83-85, infra). Thus, the system provides a method to study the in vivo role of prenylation by analyzing the ability of FPP analogues to rescue H-Ras biological functions in isoprenoid-depleted oocytes. […] Oocytes were isolated from X. laevis females and allowed to recover overnight. (See 24, 45, infra).
# [4] = target: T2, recombinant rat brain FTase (Rattus norvegicus, UniProt Q02293+Q04631); assay: Inhibition of FTase-catalyzed transfer of [^3 H]farnesyl from [^3 H]FPP to H-Ras; type: biochemical; conditions: concentrations as high as 250 μM
# T2 construct: 6xHis (N); made in house; host or cells: Sf9 insect cells (baculovirus)
# Procedure: FIG. 2. Differential Inhibition of Farnesyltransferase and CAAX Geranylgeranyltransferase by AGPP. The assay mixtures contained (in a final volume of 25 μl) various components as described in "Experimental Procedures". After incubation for 15 min at 37° C., the amount of [^3 H]prenyl group transferred to the appropriate protein substrate [H-Ras (CVLS) for FTase and H-Ras (CVLL) for CAAX GGTase] was measured by precipitation with ethanol-HCl. The assays contained 10 ng recombinant rat FTase, 5 μM H-Ras, and 0.6 μM [^3 H]FPP (33,000 dpm/pmol) or 100 ng recombinant rat CAAX GGTase, 5 μM H-Ras CVLL, and 1 μM [^3 H]GGPP (33,000 dpm/pmol) and the indicated concentration of unlabeled AGPP. The 100% of control values were 1.1 and 5.5 pmol of [^3 H]farnesyl or [^3 H]geranylgeranyl transferred per tube. Each value is the average of duplicate incubations and is representative of two separate experiments.
# FIG. 3. Inhibition of Farnesyltransferase by AGPP and I-AGPP. The enzymatic activity was measured in the presence of the various concentrations of either AGPP or I-AGPP as described in […]. The 100% control values were 1.9 and 2 pmol. Each value is the average of duplicate incubations and is representative of three separate experiments.
# as §1
# Inhibition of Farnesyltransferase by AGPP--AGPP was tested for its ability to inhibit recombinant rat brain FTase activity in vitro. AGPP inhibited FTase in a concentration dependent manner with an IC50 value of 0.6 μM (FIG. 2).
# Kinetic analyses were carried out to investigate the mechanism of FTase inhibition by AGPP. […] The same Km value was observed when the Lineweaver-Burke plot was analyzed under different Ras and AGPP concentrations in the presence of a constant concentration of FPP. […] AGPP inhibition is reversible, since transfer of [^3 H]-FPP by FTase to Ras was restored by isolating the farnesyltransferase by gel filtration chromatography after preincubation in the presence of 50 μM AGPP (data not shown).
# The assays contained 10 ng recombinant rat FTase, 5 μM H-Ras, and 0.6 μM [^3 H]FPP (33,000 dpm/pmol) or 100 ng recombinant rat CAAX GGTase, 5 μM H-Ras CVLL, and 1 μM [^3 H]GGPP (33,000 dpm/pmol) and the indicated concentration of unlabeled AGPP. The 100% of control values were 1.1 and 5.5 pmol of [^3 H]farnesyl or [^3 H]geranylgeranyl transferred per tube.
structure (smiles),measurement,setting,value
"CCN(C/C(C)=C/CC/C(C)=C/COP(=O)(O)OP(=O)(O)O)c1c(F)c(F)c(N=[N+]=[N-])c(F)c1F [analog 6, 8-(N-ethyl-4-azido-2,3,5,6-tetrafluoroaniline)-3,7-dimethyl-2,6-octadiene pyrophosphate]","time-dependent increase in dansyl fluorescence / transfer to dansyl peptide, in words",FTase [1],"no increase in fluorescence, and are not transferred"
"CC(C)=CCCC(C)=CCCC(C)=CCO [farnesol, reference compound]","inhibition of transfer of [^3 H]AGPP to p21^H-ras, in words",FTase [2],not AG-OH or farnesol were found to inhibit
"C/C(=C\COP(=O)(O)OP(=O)(O)O)CC/C=C(\C)CNc1ccc(I)cc1 [I-AGPP, 8-(4-iodoaniline)-3,7-dimethyl-2,6-octadiene pyrophosphate]","transfer to p21^H-ras by FTase, in words",FTase [3],efficient transfer of I-AGPP by FTase to H-Ras
same,"transfer to p21^H-ras by FTase, in words",FTase [3]; listed as 125 I-AGPP,time and substrate dependent manner similar to [^3 H]AGPP
"C/C(=C\COP(=O)(O)OP(=O)(O)O)CC/C=C(\C)CNc1c(F)c(F)c(N=[N+]=[N-])c(F)c1F [analog 5, 8-(4-azido-2,3,5,6-tetrafluoroaniline)-3,7-dimethyl-2,6-octadiene pyrophosphate]","time-dependent increase in dansyl fluorescence / transfer to dansyl peptide, in words",FTase [1],"no increase in fluorescence, and are not transferred"
"C/C(=C\COP(=O)(O)OP(=O)(O)O)CC/C=C(\C)CNc1c(F)c(F)c(F)c(F)c1F [analog 4, 8-pentafluoroaniline-3,7-dimethyl-2,6-octadiene pyrophosphate]","time-dependent increase in dansyl fluorescence / transfer to dansyl peptide, in words",FTase [1],Time-dependent increases in the fluorescence of the dansyl group; also recorded: does not change the apparent kinetics of transfer
"C/C(=C\COP(=O)(O)OP(=O)(O)O)CC/C=C(\C)CNc1ccc([N+](=O)[O-])cc1 [analog 2, 8-(4-nitroaniline)-3,7-dimethyl-2,6-octadiene pyrophosphate]","time-dependent increase in dansyl fluorescence / transfer to dansyl peptide, in words",FTase [1],Time-dependent increases in the fluorescence of the dansyl group
"C/C(=C\COP(=O)(O)OP(=O)(O)O)CCCOCc1ccccc1 [analog 12, 6-benzyloxy-3-methyl-2-hexene pyrophosphate]","time-dependent increase in dansyl fluorescence / transfer to dansyl peptide, in words",FTase [1],transferred to dansyl peptide by FTase with slow kinetics; also recorded: Time-dependent increases in the fluorescence of the dansyl group
"CC[C@H](C)C(=O)O[C@H]1C[C@@H](C)C=C2C=C[C@H](C)[C@H](CC[C@@H]3C[C@@H](O)CC(=O)O3)[C@H]21 [mevinolin, reference compound]",depletion of endogenous FPP pool,Xenopus laevis oocytes,effectively depletes the endogenous pool of FPP
"C/C(=C\CO)CC/C=C(\C)CNc1ccccc1 [AG-OH, (E,E)-8-Aniline-3,7-dimethyl-2,6-octadien-1-ol]","inhibition of FTase by anilinogeranyl alcohol, in words",[4],did not significantly inhibit
same,"inhibition of transfer of [^3 H]AGPP to p21^H-ras, in words",FTase [2],not AG-OH or farnesol were found to inhibit
